The IC50 is the concentration that gives 50% inhibition. What is called inhibition is how much of the control response was suppressed. In general, clearance refers to the volume of plasma or blood freed of the substance per unit of time.

Active and inactive are the calls of the source. The calls are words filed in the database; no cut-off is given here.

29 molecules from ChEMBL document CHEMBL5154889, “Development of Novel IP6K Inhibitors for the Treatment of Obesity and Obesity-Induced Metabolic Dysfunctions” (J Med Chem, 2022) can be followed below.

For data set [1], the target named is T1, Inositol hexakisphosphate kinase 3 (Homo sapiens, UniProt Q96PC2).
T1 sequence (Q96PC2 whole entry): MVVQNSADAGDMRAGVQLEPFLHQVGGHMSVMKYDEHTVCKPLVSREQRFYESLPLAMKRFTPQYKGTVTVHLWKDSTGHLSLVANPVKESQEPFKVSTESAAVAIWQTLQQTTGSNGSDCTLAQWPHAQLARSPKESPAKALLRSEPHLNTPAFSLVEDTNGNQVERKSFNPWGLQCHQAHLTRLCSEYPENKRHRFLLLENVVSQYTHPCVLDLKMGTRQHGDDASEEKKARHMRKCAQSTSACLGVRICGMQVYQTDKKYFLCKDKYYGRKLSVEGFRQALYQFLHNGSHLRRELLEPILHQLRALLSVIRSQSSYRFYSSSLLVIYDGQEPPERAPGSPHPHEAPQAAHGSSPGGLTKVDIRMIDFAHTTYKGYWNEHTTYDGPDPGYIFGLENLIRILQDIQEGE
In words: Inhibition of N-terminal 6His-sumo-tagged recombinant human IP6K3 expressed in Escherichia coli assessed as inorganic phosphate release using InsP6 as substrate in presence of ATP measured after 60 to 120 mins by malachite green based colorimetric - DIPP1 coupled enzyme assay.

The target of data set [2] is T2, Inositol hexakisphosphate kinase 1 (Homo sapiens, UniProt Q92551). Description: Inhibition of N-terminal 6His-MBP-tagged recombinant human IP6K1 expressed in Escherichia coli assessed as inorganic phosphate release using InsP6 as substrate in presence of ATP measured after 60 to 120 mins by malachite green based colorimetric - DIPP1 coupled enzyme assay.
Target sequence in this assay (Q92551 whole entry): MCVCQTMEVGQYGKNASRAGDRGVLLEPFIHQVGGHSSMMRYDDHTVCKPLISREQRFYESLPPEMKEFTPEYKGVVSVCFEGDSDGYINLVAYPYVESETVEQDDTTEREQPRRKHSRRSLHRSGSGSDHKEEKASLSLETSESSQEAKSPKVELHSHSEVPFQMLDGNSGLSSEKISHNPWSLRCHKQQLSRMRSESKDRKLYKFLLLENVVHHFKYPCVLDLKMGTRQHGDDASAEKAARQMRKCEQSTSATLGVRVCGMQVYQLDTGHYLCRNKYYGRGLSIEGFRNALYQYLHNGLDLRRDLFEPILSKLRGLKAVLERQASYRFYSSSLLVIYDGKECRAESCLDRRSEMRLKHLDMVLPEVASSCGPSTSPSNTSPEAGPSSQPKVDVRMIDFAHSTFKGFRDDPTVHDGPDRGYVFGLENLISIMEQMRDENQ
The target of data set [3] is T3, Inositol hexakisphosphate kinase 2 (Homo sapiens, UniProt Q9UHH9).
T3 sequence (Q9UHH9 whole entry): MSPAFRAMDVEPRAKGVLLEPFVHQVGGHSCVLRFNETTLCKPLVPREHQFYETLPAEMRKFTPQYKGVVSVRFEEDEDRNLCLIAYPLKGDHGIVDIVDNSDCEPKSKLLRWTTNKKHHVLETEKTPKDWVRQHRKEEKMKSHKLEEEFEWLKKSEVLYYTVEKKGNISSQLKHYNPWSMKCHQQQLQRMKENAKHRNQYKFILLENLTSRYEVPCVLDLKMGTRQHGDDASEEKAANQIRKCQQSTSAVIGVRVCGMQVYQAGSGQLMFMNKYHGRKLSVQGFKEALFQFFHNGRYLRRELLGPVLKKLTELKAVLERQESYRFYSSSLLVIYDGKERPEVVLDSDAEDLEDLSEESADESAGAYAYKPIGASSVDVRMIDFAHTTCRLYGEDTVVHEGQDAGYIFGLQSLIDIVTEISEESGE
Description: Inhibition of N-terminal 6His-tagged/TEV cleavage site fused recombinant human IP6K2 expressed in Escherichia coli assessed as inorganic phosphate release using InsP6 as substrate in presence of ATP measured after 60 to 120 mins by malachite green based colorimetric - DIPP1 coupled enzyme assay.

Another data set is filed under the species Homo sapiens. Description: Selectivity ratio of IC50 for N-terminal 6His-sumo-tagged recombinant human IP6K3 expressed in Escherichia coli assessed as inorganic phosphate release using InsP6 as substrate in presence of ATP measured to IC50 for N-terminal 6His-MBP-tagged recombinant human IP6K1 expressed in Escherichia coli assessed as inorganic phosphate release using InsP6 as substrate in presence of ATP.

The target of data set [4] is T2, Inositol hexakisphosphate kinase 1. In words: Inhibition of recombinant full length human IP6K1 in HCT-116 cells assessed as reduction in InsP7 level at 10 to 30 uM measured after 30 mins by toluidine blue staining based analysis. The class given is cell-based. The conditions noted are these: dose 10-30 µM.
Target sequence in this assay (Q92551 whole entry, looked up): as the sequence (Q92551 whole entry) above
The target of data set [5] is T3, Inositol hexakisphosphate kinase 2. In words: Inhibition of recombinant full length human IP6K2 assessed as inorganic phosphate release measured after 30 mins by ADP-Glo Max assay. For orientation: ADP-Glo turns the ADP formed in a reaction into a luminescent signal.
In data set [6] the target is T2, Inositol hexakisphosphate kinase 1. Description: Inhibition of recombinant full length human IP6K1 assessed as inorganic phosphate release measured after 30 mins by ADP-Glo Max assay.
Target sequence in this assay (Q92551 whole entry): as the sequence (Q92551 whole entry) above
The target in data set [7] is T1, Inositol hexakisphosphate kinase 3. In words: Inhibition of recombinant full length human IP6K3 assessed as inorganic phosphate release measured after 2 hrs by ADP-Glo Max assay.
The test system of data set [8] is Mus musculus. Description: Anti-diabetic activity in 16 hrs fasted C57BL6J mouse model of high fat diet-induced obesity assessed as reduction in pyruvate-induced gluconeogenesis at 2 mg/kg, ip administered for 4 weeks by pyruvate tolerance test. In kind it is functional, organism-based.
Data set [9] has as its target Inositol-trisphosphate 3-kinase A (Homo sapiens) (UniProt P23677). In words: Inhibition of N-terminal 6His-tagged/TEV cleavage site fused recombinant human IP3KA (173 to 461 residues) expressed in Escherichia coli using [3H]-Ins91,4,5)P3 as substrate measured after 60 mins by HPLC analysis.
The target in another data set is CYP2C9 (Homo sapiens, UniProt P11712). Description: Inhibition of CYP2C9 in human liver microsomes at 10 uM in presence of NADPH by LC-MS/MS analysis. In kind it is ADME, Microsome. On the technique in general: Liver microsomes are a subcellular fraction often used to study metabolism.
Data set [10] is described as follows: AUClast in diet-induced obesity CD1 mouse model at 5 mg/kg, iv measured up to 24 hrs post-dosing by LC-MS/MS analysis. The conditions noted are these: in vivo. In kind it is ADME, organism-based. On the set-up: dose 5 mg/kg, time < 24 hrs, route iv.
Data set [11] can be described thus: AUClast in diet-induced obesity CD1 mouse at 5 mg/kg, ip measured up to 24 hrs post-dosing by LC-MS/MS analysis. In kind it is ADME, organism-based. On the set-up: dose 5 mg/kg, time < 24 hrs, route ip. To be noted: in vivo.
Data set [12] in a line: Clearance in diet-induced obesity CD1 mouse at 5 mg/kg, iv measured up to 24 hrs post-dosing by LC-MS/MS analysis. The class given is ADME, organism-based. The conditions noted are these: in vivo.
For data set [13], the system named is Mus musculus. Description: Anti-obesity activity in high fat diet-induced obesity C57BL6J mouse model assessed as reduction in body weight at 5 mg/kg, ip administered for 4 weeks. The class given is functional, organism-based.
The test system of data set [14] is Mus musculus. Description: Anti-obesity activity in high fat diet-induced obesity C57BL6J mouse model assessed as reduction in fat mass at 5 mg/kg, ip administered for 4 weeks. In kind it is functional, organism-based.
Data set [15] concerns Mus musculus. Description: Anti-obesity activity in high fat diet-induced obesity C57BL6J mouse model assessed as reduction in lean mass at 5 mg/kg, ip administered for 4 weeks. In kind it is functional, organism-based.
Data set [16] relates to Mus musculus. In words: Anti-obesity activity in high fat diet-induced obesity C57BL6J mouse model assessed as reduction in epididymal-adipose tissue weight at 5 mg/kg, ip administered for 4 weeks. The class given is functional, organism-based.
Data set [17] relates to Mus musculus. Description: Anti-obesity activity in high fat diet-induced obesity C57BL6J mouse model assessed as reduction in inguinal-adipose tissue weight at 5 mg/kg, ip administered for 4 weeks. In kind it is functional, organism-based.
Data set [18] deals with Mus musculus. In words: Anti-diabetic activity in 5 hrs fasted C57BL6J mouse model of high fat diet-induced obesity assessed as improved blood glucose disposal at […], ip administered for 1 weeks by insulin tolerance test. In kind it is functional, organism-based.
The test system of data set [19] is Mus musculus. Description: Anti-diabetic activity in 16 hrs fasted C57BL6J mouse model of high fat diet-induced obesity assessed as improved blood glucose disposal at 2 mg/kg, ip administered for 3 weeks by insulin tolerance test. In kind it is functional, organism-based.
Data set [20] has as its system Mus musculus. In words: Reduction in liver weight in C57BL6J mouse model of high fat diet-induced obesity at 2 mg/kg, ip administered for 4 weeks by H and E staining assay. In kind it is functional, organism-based.
In data set [21] the test system is Mus musculus. In words: Reduction in hepatic steatosis in C57BL6J mouse model of high fat diet-induced obesity at 2 mg/kg, ip administered for 4 weeks by H and E staining assay. The class given is functional, organism-based.
The target of data set [22] is Death-associated protein kinase 1 (Homo sapiens) (UniProt P53355). Description: Inhibition of DAPK1 (unknown origin) at 1 uM relative to control.
Chain of Death-associated protein kinase 1 (Homo sapiens) (P53355 whole entry, looked up): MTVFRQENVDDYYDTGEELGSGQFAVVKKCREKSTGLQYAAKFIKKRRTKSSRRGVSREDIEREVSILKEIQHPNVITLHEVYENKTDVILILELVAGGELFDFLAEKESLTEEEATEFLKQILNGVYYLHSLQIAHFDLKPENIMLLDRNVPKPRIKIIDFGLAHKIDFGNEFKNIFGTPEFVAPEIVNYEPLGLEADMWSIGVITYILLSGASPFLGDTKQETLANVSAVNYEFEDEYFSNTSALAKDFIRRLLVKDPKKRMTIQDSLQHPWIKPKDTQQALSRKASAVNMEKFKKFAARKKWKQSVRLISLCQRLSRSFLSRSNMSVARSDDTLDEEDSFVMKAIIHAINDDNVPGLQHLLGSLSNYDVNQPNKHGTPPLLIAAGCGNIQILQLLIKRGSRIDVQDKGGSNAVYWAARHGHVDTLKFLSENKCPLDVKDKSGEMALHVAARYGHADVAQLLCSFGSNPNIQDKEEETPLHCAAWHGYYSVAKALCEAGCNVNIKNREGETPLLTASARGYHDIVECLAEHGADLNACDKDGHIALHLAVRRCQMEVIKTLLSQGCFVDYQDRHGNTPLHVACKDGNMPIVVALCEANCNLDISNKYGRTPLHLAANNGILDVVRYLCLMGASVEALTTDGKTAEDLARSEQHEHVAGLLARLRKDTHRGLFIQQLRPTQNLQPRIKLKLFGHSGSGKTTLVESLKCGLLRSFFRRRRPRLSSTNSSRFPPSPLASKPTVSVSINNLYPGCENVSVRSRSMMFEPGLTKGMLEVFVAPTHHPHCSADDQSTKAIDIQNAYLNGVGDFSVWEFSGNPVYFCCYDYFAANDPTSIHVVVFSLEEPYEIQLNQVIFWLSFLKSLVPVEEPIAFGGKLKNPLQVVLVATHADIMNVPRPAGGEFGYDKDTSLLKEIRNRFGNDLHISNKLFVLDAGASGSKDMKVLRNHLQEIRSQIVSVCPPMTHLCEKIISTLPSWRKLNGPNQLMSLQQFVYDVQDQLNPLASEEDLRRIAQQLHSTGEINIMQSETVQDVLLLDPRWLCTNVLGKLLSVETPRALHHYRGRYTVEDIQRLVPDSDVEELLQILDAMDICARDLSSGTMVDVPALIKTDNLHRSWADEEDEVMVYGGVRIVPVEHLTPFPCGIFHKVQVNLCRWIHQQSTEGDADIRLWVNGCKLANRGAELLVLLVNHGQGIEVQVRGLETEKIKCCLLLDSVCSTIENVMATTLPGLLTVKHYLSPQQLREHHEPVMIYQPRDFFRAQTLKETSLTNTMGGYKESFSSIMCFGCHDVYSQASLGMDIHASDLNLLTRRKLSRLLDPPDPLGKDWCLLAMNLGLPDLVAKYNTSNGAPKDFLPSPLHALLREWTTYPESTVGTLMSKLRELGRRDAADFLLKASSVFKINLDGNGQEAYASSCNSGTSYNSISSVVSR

Chain of CYP2C9 (P11712 whole entry): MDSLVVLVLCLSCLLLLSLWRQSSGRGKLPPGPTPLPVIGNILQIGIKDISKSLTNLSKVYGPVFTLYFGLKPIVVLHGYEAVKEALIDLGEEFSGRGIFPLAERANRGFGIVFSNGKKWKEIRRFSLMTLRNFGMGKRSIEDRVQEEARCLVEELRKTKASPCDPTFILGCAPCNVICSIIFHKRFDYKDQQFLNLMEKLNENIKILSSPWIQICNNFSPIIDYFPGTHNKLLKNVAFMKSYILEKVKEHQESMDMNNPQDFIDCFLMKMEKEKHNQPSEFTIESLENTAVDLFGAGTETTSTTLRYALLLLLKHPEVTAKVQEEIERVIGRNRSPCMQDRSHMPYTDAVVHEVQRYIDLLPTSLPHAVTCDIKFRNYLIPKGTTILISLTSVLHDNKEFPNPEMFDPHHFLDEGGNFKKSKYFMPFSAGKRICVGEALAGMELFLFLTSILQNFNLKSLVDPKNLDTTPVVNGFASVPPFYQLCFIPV
Chain of Inositol-trisphosphate 3-kinase A (Homo sapiens) (P23677 whole entry, the tested form may be a part): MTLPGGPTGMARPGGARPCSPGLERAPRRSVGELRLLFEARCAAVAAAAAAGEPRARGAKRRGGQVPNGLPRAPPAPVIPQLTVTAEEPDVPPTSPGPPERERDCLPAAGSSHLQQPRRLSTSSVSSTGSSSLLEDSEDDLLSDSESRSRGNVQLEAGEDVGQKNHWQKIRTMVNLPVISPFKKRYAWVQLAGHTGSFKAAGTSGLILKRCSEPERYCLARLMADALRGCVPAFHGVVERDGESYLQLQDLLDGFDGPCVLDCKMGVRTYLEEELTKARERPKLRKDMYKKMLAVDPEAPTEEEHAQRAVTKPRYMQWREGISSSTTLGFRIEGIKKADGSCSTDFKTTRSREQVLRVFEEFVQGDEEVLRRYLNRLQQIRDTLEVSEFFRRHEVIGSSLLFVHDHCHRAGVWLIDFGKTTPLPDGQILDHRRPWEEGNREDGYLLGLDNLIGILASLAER

As for `Cc1cc(C)cc(-c2onc3ccc(C(=O)O)cc23)c1`, the IC50 in [1] is 2.44 µM.

Turning to `O=C(O)/C=C/c1ccc2noc(-c3ccc(-c4ccccc4)cc3)c2c1`, the IC50 in [1] was 0.2 µM.

`O=C(O)c1ccc2noc(-c3cccc(NC(=O)C4CC4)c3)c2c1`: the concentration for half-maximal inhibition (IC50) in data set [1] came to 2.81 µM.

On to `O=[N+]([O-])c1ccc(CNc2nc(NCc3cccc(C(F)(F)F)c3)nc3[nH]cnc23)cc1`, for which the IC50 in [2] came to 1 µM; in [3], 2 µM; in [1], 14.5 µM.

`O=C(O)c1ccc2noc(-c3ccc(-c4ccncc4)cc3)c2c1`: the IC50 in data set [1] is 0.67 µM.

Regarding `CN(C)C(=O)/C=C/c1ccc2noc(-c3ccccc3)c2c1`, the half-inhibitory concentration (IC50) in [1] is > 100 µM. Further, the Ratio IC50 in the data set listed under Homo sapiens was > 3.4.

As for `O=C(O)c1ccc2noc(-c3ccc(NC(=O)C4CCCC4)cc3)c2c1`, in [1], the half-maximal inhibitory concentration (IC50) was 0.24 µM.

For the molecule `O=C(O)c1ccc2noc(-c3cccc(C(F)(F)F)c3)c2c1`, the 50% inhibitory concentration (IC50) in data set [1] turned out to be 4.62 µM.

For the molecule `O=C(O)c1ccc2noc(-c3cccc(Oc4ccccn4)c3)c2c1`, the IC50 in data set [1] came to 10.9 µM.

With `O=C(O)/C=C/c1ccc2c(-c3ccccc3)onc2c1`, in the data set filed under Homo sapiens, the Ratio IC50 was 3.6.

Consider `O=C(O)c1ccc2noc(-c3ccccc3)c2c1`, for which the half-maximal inhibitory concentration (IC50) in data set [1] was determined as 2.69 µM.

Regarding `O=C(O)c1ccc2noc(-c3ccc(Cc4ccccc4)cc3)c2c1`, the IC50 in data set [1] came to 1.29 µM.

In the case of `O=C(O)c1ccc2noc(-c3ccc(N4CCCC4=O)cc3)c2c1`, the 50% inhibitory concentration (IC50) in data set [1] is 2.17 µM.

Regarding `CC(C)C(=O)Nc1ccc(-c2onc3ccc(C(=O)O)cc23)cc1`, the half-maximal inhibitory concentration (IC50) in data set [3] was 0.82 µM; in data set [1], 0.21 µM.

As to `O=C(O)c1ccc2noc(-c3ccc(NC(=O)c4ccccc4)cc3)c2c1`, in data set [1], the 50% inhibitory concentration (IC50) turned out to be 0.2 µM.

With `Cc1cccc(-c2onc3ccc(/C=C/C(=O)O)cc23)c1`, in [1], the IC50 amounted to 3.59 µM.

Regarding `O=C(O)c1ccc2noc(-c3cccc(Oc4ncc(Cl)cc4Cl)c3)c2c1`, the 50% inhibitory concentration (IC50) in data set [1] stood at 3.09 µM.

As to `O=C(O)c1ccc2noc(-c3ccc(N4CCCCC4)cc3)c2c1`, in [1], the IC50 was found to be 1.79 µM.

In the case of `O=C(O)c1ccc2c(c1)C1(CCN(C(=O)c3ccc(Cl)cc3)CC1)C(=O)N2`, the inhibition result in data set [4] is “Active”. For the same molecule, the concentration for half-maximal inhibition (IC50) was found to be 0.025 µM in [5], 0.027 µM in data set [6] and 0.008 µM in data set [7].

As for `O=C(O)/C=C/c1ccc2noc(-c3ccc(OC(F)(F)F)cc3)c2c1`, in data set [1], the IC50 was 8.37 µM.

With `O=C(O)c1ccc2noc(-c3ccc(NC(=O)c4ccncn4)cc3)c2c1`, the concentration for half-maximal inhibition (IC50) in [1] was 0.43 µM.

Consider `O=C(O)/C=C/c1ccc2noc(-c3ccc(Oc4ccccc4)cc3)c2c1`, for which the IC50 in [1] was 0.76 µM.

As for `Cc1cccc(-c2onc3ccc(C(=O)O)cc23)c1`, the IC50 in [1] came out at 1.41 µM.

Take `O=C(O)c1ccc2noc(-c3cccc(-c4ccccc4)c3)c2c1`: the IC50 is 0.13 µM in data set [3] and 0.84 µM in data set [1].

On to `O=C(O)c1ccc2noc(-c3ccc(Oc4ccccc4)cc3)c2c1`, for which the IC50 in data set [1] is 0.55 µM.

Take `O=C(O)c1ccc2noc(-c3ccc(Oc4ncc(Cl)cc4Cl)cc3)c2c1`: the IC50 in data set [2] stood at 0.43 µM; in data set [1] it was 2.25 µM. Moreover, the Ratio IC50 in the data set filed under Homo sapiens worked out at 5.2.

As to `CC(C)NC(=O)c1ccc(-c2onc3ccc(C(=O)O)cc23)cc1`, the values for the concentration for half-maximal inhibition (IC50) in data set [3] and in data set [1] were 0.35 µM and 0.34 µM, respectively.

With `O=C(O)c1ccc2noc(-c3cccc(Oc4ccccc4)c3)c2c1`, the concentration for half-maximal inhibition (IC50) in data set [1] worked out at 0.85 µM.

`O=C(O)c1ccc2noc(-c3ccc(-c4ccccc4)cc3)c2c1`: the result in the data set on Mus musculus [8], in the data set on Mus musculus [13], in the data set with Mus musculus [14], in the data set with Mus musculus [15], with Mus musculus [16] and with Mus musculus [17] was Active. Moreover, the result in the data set on Mus musculus [18], in the data set with Mus musculus [19], in the data set with Mus musculus [20] and in the data set on Mus musculus [21] was Active. The inhibition entry in data set [9] is “Active”. In addition, the inhibition at 10 µM on CYP2C9 came to 36%. Also, the AUClast in data set [10] was 6054 ng·h/mL; in [11], 2527 ng·h/mL. Besides, in data set [12], the clearance was 13.7 mL/min/kg. In addition, the inhibition in [22] came out at 31%.
